“And” between values parts separate entries of the source, which are not always exact repeats. Equal values may be shown once.
Assays:
COX-1 = target: T1, COX-1 (Ovis aries, UniProt P05979); test: In vitro cyclooxygenase inhibition assay (colorimetric COX inhibitor screening kit, PGE2 synthesis), COX-1; format: biochemical; conditions: duplicate determinations; 0.01 to 550 μM
T1 construct: purchased Cayman Chemical Company 560131
T1 sequence (P05979 25-600): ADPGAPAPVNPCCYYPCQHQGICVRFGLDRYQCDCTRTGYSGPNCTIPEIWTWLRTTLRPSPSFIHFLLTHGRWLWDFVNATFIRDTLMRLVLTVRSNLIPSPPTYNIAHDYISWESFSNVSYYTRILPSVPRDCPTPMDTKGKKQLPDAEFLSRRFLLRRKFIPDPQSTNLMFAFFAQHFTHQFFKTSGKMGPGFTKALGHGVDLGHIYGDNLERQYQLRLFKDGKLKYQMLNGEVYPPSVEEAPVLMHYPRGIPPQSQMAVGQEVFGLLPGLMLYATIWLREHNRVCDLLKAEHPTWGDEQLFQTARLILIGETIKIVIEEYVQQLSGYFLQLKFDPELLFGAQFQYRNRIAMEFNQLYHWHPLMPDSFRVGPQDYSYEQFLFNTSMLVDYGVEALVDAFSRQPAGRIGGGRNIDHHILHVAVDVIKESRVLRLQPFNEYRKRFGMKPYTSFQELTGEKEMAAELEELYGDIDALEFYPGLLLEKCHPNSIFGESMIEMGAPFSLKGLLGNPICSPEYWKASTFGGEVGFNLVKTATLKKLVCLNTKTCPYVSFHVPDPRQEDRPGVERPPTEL

COX-2 = target: T2, COX-2 (Homo sapiens, UniProt P35354); test: In vitro cyclooxygenase inhibition assay (colorimetric COX inhibitor screening kit, PGE2 synthesis), COX-2; format: biochemical; conditions: for IC50: duplicate determinations, 0.01 to 550 μM; for COX-2/COX-1 selectivity ratio: ratio of IC50 values (μM)
T2 construct: purchased Cayman Chemical Company 560131
T2 sequence (P35354 18-604): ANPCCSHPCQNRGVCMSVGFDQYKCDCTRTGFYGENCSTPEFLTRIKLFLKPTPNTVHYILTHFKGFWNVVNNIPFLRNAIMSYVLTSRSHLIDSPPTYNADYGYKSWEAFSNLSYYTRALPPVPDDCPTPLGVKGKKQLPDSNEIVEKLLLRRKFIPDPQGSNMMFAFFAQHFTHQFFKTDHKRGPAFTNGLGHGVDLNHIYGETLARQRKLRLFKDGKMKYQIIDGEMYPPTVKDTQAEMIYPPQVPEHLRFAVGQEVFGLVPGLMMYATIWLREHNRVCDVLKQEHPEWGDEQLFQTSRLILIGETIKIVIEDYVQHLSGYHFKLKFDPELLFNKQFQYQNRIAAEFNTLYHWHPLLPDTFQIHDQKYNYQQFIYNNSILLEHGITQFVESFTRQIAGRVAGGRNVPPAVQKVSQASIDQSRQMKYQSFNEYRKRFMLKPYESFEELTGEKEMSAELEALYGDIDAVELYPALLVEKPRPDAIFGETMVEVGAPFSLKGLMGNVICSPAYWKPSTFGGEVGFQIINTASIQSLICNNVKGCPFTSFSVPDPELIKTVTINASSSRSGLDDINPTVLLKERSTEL

hyperuricemia rats = test: Hyperuricemia rat model (adenine/dry yeast), uric acid in serum and urine; format: in vivo, Sprague-Dawley (SD) rats; conditions: oral, 5 days, Wosi 0.5, 1, 2 g/kg, vs model group
Method: The rats were divided into six groups, and each group comprised of 10 animals which were control, model, Benzbromarone (0.01 mg/kg), Wosi (0.5, 1, and 2 g/kg) groups. Briefly, 10% dry yeast solution of 1.25% adenine (10 ml/kg) was given orally administration for 15 consecutive days to induce the hyperuricemia in each animal except those of control groups. The solution of 0.5% CMC-Na was given to the control groups. On the 10th day, the Wosi and Benzbromarone were orally administered continuously 24 h 5 days. Normal saline was given to the control and model groups. Collecting 14th and 15th days of rat urine (24 h) and recording the volume. It was centrifuged at 3,500 g for 5 min to remove the precipitations. On the 15th day, rats were first anesthetized with pentobarbital sodium (i.p., 70 mg/kg body weight), 1 h after the final drug treatment. Then the blood sample was collected and centrifuged at 3000 g for 5 min to obtain the serum. Serum were kept under −20°C.
According to manufacturer’s instructions, using a standard diagnostic kit, was used in order to evaluate the concentration of uric acid concentration in serum and urine.

[1] = tested on: serum cytokines IL-6, IL-1β, IL-2, IL-10, IFN-γ; test: Serum inflammatory cytokines (ELISA) in MSU-induced rats; format: in vivo, Sprague-Dawley (SD) rats; conditions: oral 7 days, Wosi 0.5, 1, 2 g/kg, colchicine 0.2 mg/kg
Method: (§1) Rats were divided as aforementioned. Wosi at three doses (0.5, 1, and 2 g/kg) were orally administration once daily for 7 days in Wosi groups. Meanwhile, colchicine was orally administration once daily for 7 days in colchicine groups. The injection of the MSU crystal was performed on the fifth day for each animal except those of control groups. 0.9% sterile saline was given to the control group. On the seventh day, rats were first anesthetized with pentobarbital sodium (i.p., 70 mg/kg body weight) at 30 min after the last dosing, Blood samples were taken from rat femoral artery with heparinized needles which were allowed to clot for 1 h at room temperature and centrifuged at 3,000 g for 10 min to obtain serum. Serum samples were stored at −20°C until the ELISA testing, then rats were sacrificed by femoral artery exsanguination. Meanwhile, the ankle joint surrounding tissues were collected for the immunohistochemical analyze and frozen at −80°C.
The levels of interleukin 6 (IL-6), interleukin 1 beta, interleukin 2 (IL-2), interleukin 10 (IL-10), and interferon gamma (IFN-γ) in the serum were measured using ELISA kits according to manufacturer’s instructions.

[2] = tested on: COX-2 and VCAM-1 protein expression; test: Immunohistochemistry of COX-2 and VCAM-1 protein in ankle joint synovial tissue of MSU-induced rats; format: in vivo, Sprague-Dawley (SD) rats; conditions: 7 days, colchicine 0.2 mg/kg
Method: as §1
The method of immunohistochemical staining for the ankle joint was as following the previous studies. Briefly, the sections were deparaffinized and […] by xylene and ethanol. […] Finally, the sections were washed with TBS three times, and antibody binding was detected using 3,3′-diaminobenzidine tetrahydrochloride (DAB). […] Stained sections were dehydrated and then each section was analyzed by microscope and image output system.

cyclooxygenase-2 = tested on: cyclooxygenase-2; parameters: method as in Ringbom et al., 1998; conditions: ref Ringbom et al., 1998; cited from earlier work

C[C@@H]1O[C@@H](O[C@@H]2[C@@H](O)[C@H](O[C@H]3CC[C@]4(C)[C@H]5CC=C6[C@@H]7CC(C)(C)CC[C@]7(C(=O)O)CC[C@@]6(C)[C@]5(C)CC[C@H]4C3(C)C)O[C@H](C(=O)O)[C@H]2O)[C@H](O)[C@H](O)[C@H]1O [Compound a, 3-O-[α-L-pyranrhamnose(1-3)-β-D-pyranglucuronic acid]-oleanolic acid]
IC50 (COX-1): 443 µM
IC50 (COX-2): 298 µM
COX-2/COX-1 selectivity ratio (COX-2): 0.67

CC1(C)CC[C@]2(C(=O)O[C@@H]3O[C@H](CO)[C@@H](O)[C@H](O)[C@H]3O)CC[C@]3(C)C(=CC[C@@H]4[C@@]5(C)CC[C@H](O[C@@H]6O[C@H](C(=O)O)[C@@H](O)[C@H](O)[C@H]6O)C(C)(C)[C@@H]5CC[C@]43C)[C@@H]2C1 [Compound b, 3-O-(β-D-pyranglucuronic acid)-oleanolic acid-28-O-β-D-pyran glucoside]
IC50 (COX-1): 488 µM
IC50 (COX-2): 294 µM
COX-2/COX-1 selectivity ratio (COX-2): 0.60

C[C@@H]1O[C@@H](O[C@@H]2[C@@H](O)[C@H](O[C@H]3CC[C@]4(C)[C@H]5CC=C6[C@@H]7CC(C)(C)CC[C@]7(C(=O)O[C@@H]7O[C@H](CO)[C@@H](O)[C@H](O)[C@H]7O)CC[C@@]6(C)[C@]5(C)CC[C@H]4C3(C)C)O[C@H](C(=O)O)[C@H]2O)[C@H](O)[C@H](O)[C@H]1O [Compound c, 3-O-[α-L-pyranrhamnose(1-3)-β-D-pyranglucuronic acid]-oleanolic acid-28-O-β-D-pyran glucoside]
IC50 (COX-1): 538 µM
IC50 (COX-2): 384 µM and 349 µM
COX-2/COX-1 selectivity ratio (COX-2): 0.65 and 0.64

CCc1oc2ccccc2c1C(=O)c1cc(Br)c(O)c(Br)c1 [benzbromarone, Benzbromarone]
serum level of uric acid (hyperuricemia rats): recovered to that of the normal animals
urine uric acid excretion (24 h) (hyperuricemia rats): recovered to that of the normal animals

COc1cc2c(c(OC)c1OC)-c1ccc(OC)c(=O)cc1[C@@H](NC(C)=O)CC2 [colchicine, Colchicine]
serum level of IFN-γ [1]: inhibited IL-2, IL-1β, IL-6, and IFN-γ secretion
serum level of IL-1β [1]: inhibited IL-2, IL-1β, IL-6, and IFN-γ secretion
serum level of IL-2 [1]: inhibited IL-2, IL-1β, IL-6, and IFN-γ secretion
serum level of IL-6 [1]: inhibited IL-2, IL-1β, IL-6, and IFN-γ secretion
serum level of IL-10 [1]: increased IL-10 secretion
protein expression of VCAM-1 in synovial tissue (IHC, IOD) ([2]; Wosi 0.5, 1, 2 g/kg): recovered to that of the normal animals
protein expression of COX-2 in synovial tissue (IHC, IOD) ([2]; Wosi particularly at 0.5 and 2 g/kg/day): recovered to that of the normal animals

CC1(C)CC[C@]2(C(=O)O)CC[C@]3(C)C(=CC[C@@H]4[C@@]5(C)CC[C@H](O)C(C)(C)[C@@H]5CC[C@]43C)[C@@H]2C1 [oleanolic acid]
selectivity of inhibition of cyclooxygenase-2 catalyzed prostaglandin biosynthesis (cyclooxygenase-2): selective inhibitors of cyclooxygenase-2 catalyzed prostaglandin biosynthesis

C[C@H]1[C@H](C)CC[C@]2(C(=O)O)CC[C@]3(C)C(=CC[C@@H]4[C@@]5(C)CC[C@H](O)C(C)(C)[C@@H]5CC[C@]43C)[C@H]12 [ursolic acid]
selectivity of inhibition of cyclooxygenase-2 catalyzed prostaglandin biosynthesis (cyclooxygenase-2): selective inhibitors of cyclooxygenase-2 catalyzed prostaglandin biosynthesis
